This assay deals with T1, AURKA (Aurora A) (Homo sapiens, UniProt O14965).
T1 construct: purchased Thermo Fisher Scientific (Life Technologies) SelectScreen
Nature of the assay: SelectScreen Z'LYTE. The assay is classed as biochemical. In outline: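 Percent values come from Thermo SelectScreen profiling of NU5455, combining activity and binding assays. CSF1R was run in Z'LYTE format at Km app ATP, and CAMK1 in Adapta format with ATP listed at 10.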

T1 sequence (O14965 whole entry): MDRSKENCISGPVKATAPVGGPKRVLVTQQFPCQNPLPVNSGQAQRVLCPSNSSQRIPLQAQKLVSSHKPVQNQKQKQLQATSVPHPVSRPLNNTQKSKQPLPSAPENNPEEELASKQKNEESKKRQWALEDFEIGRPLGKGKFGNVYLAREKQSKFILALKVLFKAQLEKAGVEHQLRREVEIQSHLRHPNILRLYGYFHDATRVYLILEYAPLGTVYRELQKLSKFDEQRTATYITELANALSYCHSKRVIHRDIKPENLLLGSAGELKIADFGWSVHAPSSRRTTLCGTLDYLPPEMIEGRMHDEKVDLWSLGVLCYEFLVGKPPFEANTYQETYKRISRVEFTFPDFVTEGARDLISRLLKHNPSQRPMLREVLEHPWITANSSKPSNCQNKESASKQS

In general, inhibition refers to the change of the read-out against control, counted positive when it falls. For the molecule `CN(C(=O)CN1CCOCC1)c1ccc2sc3c(-c4cccc5c(=O)cc(N6CC7CCC(C6)O7)oc45)cccc3c2c1` [NU5455], the inhibition at 1 µM is -0.1%.

The values are drawn from paper PMC6934184, “Selective DNA-PKcs inhibition extends the therapeutic index of localized radiotherapy and chemotherapy” (The Journal of Clinical Investigation, 2019).
